Reference: US20110104064A1, “CYCLIZED NON-NATIVE SYNTHETIC PEPTIDE AND COMPLEX OF PEPTIDES COMPRISING SAID CYCLIZED PEPTIDE, INTENDED TO INDUCE AND TO CH[…] PREVENTION OR TREATMENT OF CONDITIONS IN MAMMALS” (priority 2008, published 2011)
Bridges are numbered along the chain shown (N, C = ends). Where no end group is shown, it is not given here.

Experiments:
[1] = system: Leishmania; assay: Infection test in vaccinated dogs, parasitology from marrow punctures; format: in vivo; conditions: four months after the infection test
Experimental: The infection test consisted of intravenously injecting 10^8 complement-treated promastigotes in metacyclic phase from a healthy dog and 5×10^8 peritoneous macrophages from a healthy dog, infected in vitro by amastigotes.
The promastigotes and the infected macrophages were diluted in sterile physiological serum to a final volume of 1.5 mL. This mixture was made up just prior to injection.
A parasitological examination was carried out from samples taken directly from the dog.
A smear from the bone-marrow puncture was made on a slide. This smear, once fixed in methanol was May Grümwald Giemsa stained and studied under an immersion microscope (×1000).
Some bone-marrow samples were cultivated in a biphasic culture medium NNN (Novy and Mac Neal, 1904, 4. Infec. Dis., 1:1-30) of which RPMI 1640 added to 20% of decomplemented fetal veal serum made up the liquid phase. Random subculturing was carried out every 4 to 6 days. The cultures were regularly studied by photon microscope (×400) for 20 minutes.
The parasitemias were quantified as follows: • +/−: elongated, immobile, refringent forms • +: 1 to 5 mobile/field promastigote forms • ++: >5 mobile/field promastigote forms • +++: cultivated to confluence.
It was necessary to add to these analyses the study of Leishmania by direct observation under microscope and culture in NNN medium from the bone-marrow after the infection test. […]

[2] = system: Leishmania promastigotes and amastigotes; assay: Inhibition of parasitic growth by serums from vaccinated dogs; format: cell-based; conditions: in vitro
Experimental: Inhibition of the growth of promastigotes and amastigotes in the presence of IgG2 (Patent FR0209506).
The role of the IgG2 on the viability and growth of Leishmania promastigotes and amastigotes was analyzed with immunoserums from dogs vaccinated with the mixture including the cyclized peptide E34P and the serums from the placebo dogs.

[3] = system: monocytes; assay: Leishmanicidal activity of monocytes (cell-mediated Th1 response); format: cell-based, dog; conditions: for immune response after vaccination (summary of Table I): dogs, 1 month after the 3rd injection, with adjuvant QA21
Source text: (§1) This evidence was gathered using two techniques: • Assaying the leishmanicidal activity of the monocytes according to the method described previously (Patent FRO1076060); • Detection of dog IgG2, specific to the cyclized peptide E34P and the carboxyterminal group of PSA.
(§2) Biological analysis consisted of: • Serology of specific IgG2 of cyclized peptide E34P and of the carboxyterminal group of PSA; • Leishmaniasis serology: quantitative immunofluorescence of the total IgG (sign of infection); • Leishmanicidal activity of the monocytes (cell-mediated response).

[4] = system: cyclized peptide E34P; assay: ELISA serology of dog IgG2 vs. cyclised E34P after vaccination; format: in vivo; conditions: non-cyclization at Cys9/Cys15
Experimental: as §1
This detection was carried out by the ELISA method according to the microtitration technique of Kweider et al. (J. Immunol, 1987, 138, 299) by using an anti IgG2 conjugate. For this method, the peptide is biotinylated before coating onto microplates. This bonding to […] biotin-type molecules has the effect of rendering the cyclized peptide E34P more antigenic. We also use the recombinant protein coding for the carboxyterminal group of the PSA as antigen.
Biological analyses were carried out: • Before any injection • 1 month after the 3rd injection.
as §2

| Substance | protection after the infection test (summary of Table II) [1] | neutralizing / anti-parasitic role of the induced IgG2 [2] | immune response after vaccination (summary of Table I) [3] | Th1 stimulation ([3]; peptide used alone or in combination with other peptides) | IgG2 synthesis [4] |
| --- | --- | --- | --- | --- | --- |
| EDEHKGKYCRLGNDCRTTEPTTTATPRGTPTPAP (EDEHKGKYCRLGNDCRTTEPTTTATPRGTPTPAP; disulfide 9-15) [Group E34P] | insufficient to induce an effective response | induces IgG2 immunoglobulins capable of neutralizing the proliferation | only partial response |  |  |
| NON-cyclized peptide E34P: the non-cyclized form of peptide E34P (SEQ ID No. 1 without Cys9/Cys15 disulfide bridge) (EDEHKGKYCRLGNDCRTTEPTTTATPRGTPTPAP; non-cyclized, no disulfide; Fully-synthetic sequence) |  |  | less effective than the cyclized E34P | only induces very partial Th1 stimulation | only induces slight IgG2 synthesis |
